The values that follow come from patent publication US20250099431A1, “GLP-1R MODULATING COMPOUNDS” (priority 2020, published 2025).

Where only a bound is given, the exact number is not on record here.

In one data set the target is GLP-1R (Homo sapiens (Human), UniProt P43220). Briefly: GLP-1R activation: cAMP increase in CHO cells stably expressing GLP-1R. The class given is cell-based. The conditions noted are these: cAMP increase, 10 point dose response, 30 minutes incubation at 37° C., read-out: EC50. Summed up: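 CHO cells stably expressing GLP-1R were incubated 1 h at 37 °C in medium with 1% BSA, then exposed to compound in a 10-point dose response for 30 min at 37 °C. cAMP rise was detected by HTRF (Gs Dynamic kit). EC50 came from a sigmoidal fit of response against log agonist concentration.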

Data set [1] is described as follows: Microsomal stability (liver microsomal assay, mixed cofactors); predicted hepatic clearance. Format: in vitro ADME. The following applies: liver microsomes 1.0 mg protein/mL (+UDPGA +NADPH), 1 μM analyte, 37° C.; scaled with human liver weight and hepatic blood flow 1.3 L/hr/kg. The essentials:
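Compound at 1 μM with human or rat pooled liver microsomes, alamethicin-treated, pH 7.4 phosphate, NADPH-regenerating plus UDPGA cofactors, 37° C, sampled 0–70 min. Parent/internal standard ratio by RapidFire QToF MS; half-life from initial log-linear decay, scaled to intrinsic and predicted hepatic clearance and hepatic extraction.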

By EC50 is commonly meant the concentration giving half of the maximal effect.

Chain of GLP-1R (P43220 24-463): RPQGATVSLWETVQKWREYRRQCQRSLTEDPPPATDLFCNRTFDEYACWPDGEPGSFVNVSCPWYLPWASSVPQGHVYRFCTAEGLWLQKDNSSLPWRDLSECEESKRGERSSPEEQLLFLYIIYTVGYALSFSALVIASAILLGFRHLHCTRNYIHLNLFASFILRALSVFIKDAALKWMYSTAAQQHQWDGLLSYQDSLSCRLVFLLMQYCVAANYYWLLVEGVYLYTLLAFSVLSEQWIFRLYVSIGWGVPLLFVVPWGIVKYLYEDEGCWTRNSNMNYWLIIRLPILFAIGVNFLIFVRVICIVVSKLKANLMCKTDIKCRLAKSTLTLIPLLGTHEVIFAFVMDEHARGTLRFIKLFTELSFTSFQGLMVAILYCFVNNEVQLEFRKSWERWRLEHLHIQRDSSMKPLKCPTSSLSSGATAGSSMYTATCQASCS

For `COCCn1c(Cc2c(F)cc(-c3cccc4c3OC(C)(c3ccc(Cl)cc3F)O4)cc2F)nc2ccc(C(=O)O)cc21` (centres unmarked) [Example 19, 2-(4-(2-(4-chloro-2-fluorophenyl)-2-methylbenzo[d][1, 3]dioxol-4-yl)-2,6-difluorobenzyl)-1-(2-methoxyethyl)-1H-benzo[d]imidazole-6-carboxylic acid], at GLP-1R, the EC50 worked out at 0.97 nM. Moreover, the “Predicted Hepatic Clearance (Pred. Cl.)” value in data set [1] was 0.15 L/h/kg.
For the compound `CC1(c2ccc(Cl)cc2F)Oc2cccc(-c3cc(F)c(Cc4nc5ccc(C(=O)O)cc5n4C[C@@H]4CCO4)c(F)c3F)c2O1` (stereo partly drawn) [Example 20, 2-(4-(2-(4-chloro-2-fluorophenyl)-2-methylbenzo[d][1, 3]dioxol-4-yl)-2,3,6-trifluorobenzyl)-1-(((S)-oxetan-2-yl)methyl)-1H-benzo[d]imidazole-6-carboxylic acid], the 50% effective concentration (EC50) at GLP-1R is 0.089 nM. In data set [1], the “Predicted Hepatic Clearance (Pred. Cl.)” value was 0.15 L/h/kg.
Take `CC1(c2ccc(Cl)cc2F)Oc2cccc(-c3cc(F)c(Cc4nc5ccc(C(=O)O)nc5n4CC4(CF)CC4)c(F)c3)c2O1` (centres unmarked) [Example 21, 2-(4-(2-(4-chloro-2-fluorophenyl)-2-methylbenzo[d][1, 3]dioxol-4-yl)-2,6-difluorobenzyl)-3-((1-(fluoromethyl)cyclo-propyl)methyl)-3H-imidazo[4,5-b]pyridine-5-carboxylic acid]: the EC50 on GLP-1R was 0.86 nM. The “Predicted Hepatic Clearance (Pred. Cl.)” value in data set [1] was less than 0.11 L/h/kg.
In the case of `CC1(c2ccc(Cl)cc2F)Oc2cccc(-c3cc(F)c(Cc4nc5ccc(C(=O)O)cc5n4C[C@@H]4CCO4)c(F)c3)c2O1` (stereo partly drawn) [Example 22, 2-(4-(2-(4-chloro-2-fluorophenyl)-2-methylbenzo[d][1, 3]dioxol-4-yl)-2,6-difluorobenzyl)-1-(((S)-oxetan-2-yl)methyl)-1H-benzo[d]imidazole-6-carboxylic acid], the EC50 on GLP-1R was 0.024 nM. Moreover, in data set [1], the “Predicted Hepatic Clearance (Pred. Cl.)” value is less than 0.11 L/h/kg.
As to `CC1(c2ccc(Cl)cc2F)Oc2cccc(-c3ccc(Cc4nc5ccc(C(=O)O)cc5n4C[C@@H]4CCO4)c(F)c3)c2O1` (stereo partly drawn) [Example 23, 2-(4-(2-(4-chloro-2-fluorophenyl)-2-methylbenzo[d][1, 3]dioxol-4-yl)-2-fluorobenzyl)-1-(((S)-oxetan-2-yl)methyl)-1H-benzo[d]imidazole-6-carboxylic acid], the EC50 on GLP-1R amounted to 0.49 nM. In addition, the “Predicted Hepatic Clearance (Pred. Cl.)” value in data set [1] is recorded as 0.14 L/h/kg.
On the same counts, the results for `CC1(c2ccc(Cl)cn2)Oc2cccc(-c3cc(F)c(Cc4nc5ccc(C(=O)O)cc5n4CC4(CC#N)CC4)c(F)c3)c2O1` (centres unmarked) [Example 24, 2-(4-(2-(5-chloropyridin-2-yl)-2-methylbenzo[d][1, 3]dioxol-4-yl)-2,6-difluorobenzyl)-1-((1-(cyanomethyl)cyclo-propyl)methyl)-1H-benzo[d]imidazole 6-carboxylic acid] are 1.7 nM and 0.16 L/h/kg.
`CC1(c2ccc(C#N)cc2F)Oc2cccc(-c3cc(F)c(Cc4nc5ccc(C(=O)O)cc5n4C[C@@H]4CCO4)cc3F)c2O1` (stereo partly drawn) [Example 25, 2-(4-(2-(4-cyano-2-fluorophenyl)-2-methylbenzo[d][1, 3]dioxol-4-yl)-2,5-difluorobenzyl)-1-(((S)-oxetan-2-yl)methyl)-1H-benzo[d]imidazole-6-carboxylic acid]: the 50% effective concentration (EC50) on GLP-1R turned out to be 0.3 nM. The “Predicted Hepatic Clearance (Pred. Cl.)” value in data set [1] is reported as 0.26 L/h/kg.
With `CC1(c2ccc(Cl)cn2)Oc2cccc(-c3ccn(Cc4nc5ccc(C(=O)O)cc5n4C[C@@H]4CCO4)c(=O)c3)c2O1` (stereo partly drawn) [Example 26, 2-((4-(2-(5-chloropyridin-2-yl)-2-methylbenzo[d][1, 3]dioxol-4-yl)-2-oxopyridin-1(2H)-yl)methyl)-1-(((S)-oxetan-2-yl)methyl)-1H-benzo[d]imidazole-6-carboxylic acid], on GLP-1R, the concentration giving a half-maximal response (EC50) was 37 nM. Further, in data set [1], the “Predicted Hepatic Clearance (Pred. Cl.)” value is on record as less than 0.11 L/h/kg.
Take `CC1(c2ccc(Cl)cn2)Oc2cccc(-c3cc(F)c(Cc4nc5ccc(C(=O)O)cc5n4C[C@@H]4CCO4)c(F)c3)c2O1` (stereo partly drawn) [Example 27, 2-(4-(2-(5-chloropyridin-2-yl)-2-methylbenzo[d][1, 3]dioxol-4-yl)-2,6-difluorobenzyl)-1-(((S)-oxetan-2-yl)methyl)-1H-benzo[d]imidazole-6-carboxylic acid]: the EC50 on GLP-1R is 0.53 nM. Also, in data set [1], the “Predicted Hepatic Clearance (Pred. Cl.)” value is given as 0.14 L/h/kg.
`CC1(c2ccc(Cl)cc2F)Oc2cccc(-c3cc(F)c(Cc4nc5ccc(C(=O)O)cc5n4C[C@@H]4CCO4)cc3F)c2O1` (stereo partly drawn) [Example 28, 2-(4-(2-(4-chloro-2-fluorophenyl)-2-methylbenzo[d][1, 3]dioxol-4-yl)-2,5-difluorobenzyl)-1-(((S)-oxetan-2-yl)methyl)-1H-benzo[d]imidazole-6-carboxylic acid]: the EC50 at GLP-1R turned out to be 0.034 nM. In addition, in data set [1], the “Predicted Hepatic Clearance (Pred. Cl.)” value is 0.23 L/h/kg.
Regarding `CC1(c2ccc(Cl)cn2)Oc2cccc(-c3cc(F)c(Cc4nc5ccc(C(=O)O)cc5n4C[C@@H]4CCO4)cc3F)c2O1` (stereo partly drawn) [Example 29, 2-(4-(2-(5-chloropyridin-2-yl)-2-methylbenzo[d][1, 3]dioxol-4-yl)-2,5-difluorobenzyl)-1-(((S)-oxetan-2-yl)methyl)-1H-benzo[d]imidazole-6-carboxylic acid], on GLP-1R, the EC50 worked out at 0.076 nM. For the same compound, the “Predicted Hepatic Clearance (Pred. Cl.)” value in data set [1] is 0.28 L/h/kg.
With `N#Cc1ccc(C2Oc3cccc(-c4cc(F)c(Cc5nc6ccc(C(=O)O)cc6n5C[C@@H]5CCO5)c(F)c4)c3O2)c(F)c1` (stereo partly drawn) [Example 30, (S)-2-(4-(2-(4-cyano-2-fluorophenyl)benzo [d][1,3]dioxol-4-yl)-2,6-difluorobenzyl)-1-(oxetan-2-ylmethyl)-1H-benzo[d]imidazole-6-carboxylic acid], the EC50 on GLP-1R worked out at 1.9 nM. Besides, in data set [1], the “Predicted Hepatic Clearance (Pred. Cl.)” value is reported as 0.21 L/h/kg.
In the case of `COCCn1c(Cc2cc(F)c(-c3cccc4c3OC(c3ccc(C#N)cc3F)O4)cc2F)nc2ccc(C(=O)O)cc21` (centres unmarked) [Example 31, 2-(4-(2-(4-cyano-2-fluorophenyl)benzo [d][1,3]dioxol-4-yl)-2,5-difluorobenzyl)-1-(2-methoxyethyl)-1H-benzo[d]imidazole-6-carboxylic acid], the EC50 at GLP-1R turned out to be 89 nM. The “Predicted Hepatic Clearance (Pred. Cl.)” value in data set [1] is on record as 0.19 L/h/kg.
In the same order, the values of `COCCn1c(Cc2ccc(-c3cccc4c3OC(c3ccccc3)O4)cc2F)nc2ccc(C(=O)O)cc21` (centres unmarked) [Example 32, 2-(2-fluoro-4-(2-phenylbenzo[d][1, 3]dioxol-4-yl)benzyl)-1-(2-methoxyethyl)-1H-benzo[d]imidazole-6-carboxylic acid] are 1920 nM and 0.38 L/h/kg.
As for `COCCn1c(Cc2ccc(-c3cccc4c3OC(C)(c3nc5ccccc5n3C)O4)cc2F)nc2ccc(C(=O)O)cc21` (centres unmarked) [Example 52, 2-[[2-fluoro-4-[2-methyl-2-(1-methylbenzimidazol-2-yl)-1,3-benzodioxol-4-yl]phenyl]methyl]-3-(2-methoxyethyl) benzimidazole-5-carboxylic acid], on GLP-1R, the EC50 came out at 2270 nM. For the same compound, the “Predicted Hepatic Clearance (Pred. Cl.)” value in data set [1] was 1.07 L/h/kg.
For the compound `CCC1(c2ccc(Cl)cc2F)Oc2cccc(-c3cc(F)c(Cc4nc5ccc(C(=O)O)cc5n4CCOC)c(F)c3)c2O1` (centres unmarked) [Example 53, 2-(4-(2-(4-chloro-2-fluorophenyl)-2-ethylbenzo[d][1,3]dioxol-4-yl)-2,6-difluorobenzyl)-1-(2-methoxyethyl)-1H-benzo[d]imidazole-6-carboxylic acid], the EC50 at GLP-1R worked out at 1290 nM. For the same compound, the “Predicted Hepatic Clearance (Pred. Cl.)” value in data set [1] is listed as 0.8 L/h/kg.
